Data: patent US20170216329A1, “Ceramide-Rubusoside Nanomicelles and Their Use in Cancer Therapy” (Board of Supervisors of Louisiana State University and …, priority 2014, published 2017)
One block for each compound: values may come before it.

Key:
[1] = tested on: A2780 ovarian cancer cells (p53 wild-type); assay: Cell viability after 72 hours, A2780; format: cell-based
[2] = tested on: wt p53 (phosphorylated-Ser15); conditions: cited from earlier work
[3] = tested on: protein phosphatase 1 (PP1); assay: PP1 activity in NCI/ADR-RES cells; format: cell-based, human
Procedure: Cer can modulate gene expression, not only by activating transcription, but also by determining protein isoform. […] We assessed the roles of protein phosphatase 1 (PP1) and serine/arginine-rich splicing-factor 1 SRSF1 in Cer-induced wt p53 restoration via PP1 and SRSF1 in NCI/ADR-RES human ovarian cancer cells. […] Cells were pretreated with CalA (5 nM) for 4 hr, and then with either MBO-asGCS (MBO-as, 100 nM) or C6-Cer (2.5 μM) for 72 hr. FIG. 2 depicts PP1 activity in NCI/ADR-RES cells with various treatments. […] These increases were correlated with increases in wt p53 mRNA (exon 5) and pp53 (as assessed by RT-PCR amplification, data not shown).

[4] = tested on: OVCAR3 ovarian cancer cells (p53 R248 missense mutation); assay: Cell viability after 72 hours, OVCAR3; format: cell-based, Human
Procedure: We examined the effect of Ceramide-RUB nanomicelles on p53 restoration in cancer cell models. Human OVCAR3 ovarian cancer cells carry a p53 R248 missense mutation, and are resistant to many anticancer drugs. […] FIG. 3 depicts cell viability (as a percentage of control) after treatment for 72 hours with varying concentrations of C6-Ceramide. FIG. 4 depicts cell viability (as a percentage of control) after treatment for 72 hours with varying concentrations of C6-Ceramide-Rubusoside. FIG. 5 depicts cell viability (as a percentage of control) after treatment for 72 hours with varying concentrations of Rubusoside.

[5] = tested on: p53, Bax and p21 in the small intestine; assay: p53 restoration in heterozygous p53R172H/+ transgenic mice (small intestine); format: in vivo; conditions: 1 mg/kg, i.p., every 3 days for 6 days; vs. saline
Excerpt: We examined the effects of Cer on restoring wt p53 expression in p53 missense transgenic mice. The experimental animals were heterozygous 129S4-Trp53^tm2.1Tyj transgenic mice, which carry the mutation p53^R172H/+, and have a genetic predisposition to cancer. (Doyle et al., 2010; Olive et al., 2004; Yu et al., 2012) These mice were generously provided by the NCI Mouse Repository (Rockville, Md.). We analyzed the genotypes of offspring by PCR analysis of DNA from blood collected from the tail vein. Heterozygous (HTZ) p53^R172H/+ mice were treated with C6-Cer or C6-Cer-RUB (1 mg/kg, i.p., every 3 days for 6 days).

[6] = tested on: HTZ SW48/TP53+/− and parental SW48 (wt p53) cells; assay: Sensitivity of SW48 cells to Cers; format: cell-based, human; conditions: both cell lines, data not shown
[7] = WHO intake limits (ADI, NOEL); conditions: converted from the steviol ADI
Procedure: (§1) Rubusoside (RUB) is a steviol glycoside. Steviol glycosides, extracted from the leaves of various plants, are often used as natural food sweeteners. […] Rubusoside is generally recognized as safe (GRAS) as a food additive for the general public according to the World Health Organization (WHO) (2005). A WHO expert panel has set 760 mg/kg/day RUB as the no-observed-effect level (NOEL) (2005). Thus there is ample tolerance for avoiding toxicity when rubusoside is employed in the present invention.

[8] = set by WHO expert panel (2005); cited from earlier work
[9] = Preliminary oral toxicity study in normal mice; format: in vivo; conditions: up to 4 g daily per kg body mass, orally, two weeks
Procedure: as §1

IC50 [1]: 0.9 µM
IC50 ([4]; OVCAR3 cells, 72 hours): 12.5 µM
Compound: CCCCCCCCCCCCC/C=C/[C@@H](O)[C@H](CO)NC(=O)CCCCC [C6-Cer, C6-Ceramide]
restoration of p53 activity ([2]; exogenous, Liu et al., 2011): restored p53 activity
PP1 activity ([3]; MBO-asGCS 100 nM or C6-Cer 2.5 μM, 72 hr): significantly increased
resistance of OVCAR3 relative to A2780 cells ([4]; ratio of IC50 values): 12 times
protein level of Bax in the small intestine [5]: significantly increased
protein level of p53 in the small intestine [5]: significantly increased

Compound: CCCCCCCCCCCCC/C=C/[C@@H](O)[C@H](CO)NC(=O)CCCCCCCCCCCCCCCCC [C18-Cer]
relative sensitivity of cells to Cers [6]: more sensitive to C18-Cer than C6-Cer

Compound: CCCC[C@@H](C)[C@@H](OC(=O)C[C@@H](CC(=O)O)C(=O)O)[C@H](C[C@@H](C)C[C@H](O)CCCC[C@@H](O)C[C@H](O)[C@H](C)N)OC(=O)C[C@@H](CC(=O)O)C(=O)O [Fumonisin B1]
effect on p53 restoration by MBO-asGCS ([2]; inhibitor of Cer synthase): inhibited p53 restoration

Compound: C=C1C[C@@]23CC[C@H]4[C@@](C)(CCC[C@@]4(C)C(=O)O[C@@H]4O[C@H](CO)[C@@H](O)[C@H](O)[C@H]4O)[C@@H]2CC[C@]1(O[C@@H]1O[C@H](CO)[C@@H](O)[C@H](O)[C@H]1O)C3 [Rubusoside, rubusoside]
cytotoxicity ([1]; any concentration tested up to 15 μM): no cytotoxicity
Accepted Daily Intake (ADI), roughly comparable amount [7]: 8 to 12 mg/kg/day
no-observed-effect level (NOEL) [8]: 760 mg/kg/day
cytotoxicity ([4]; OVCAR-3 cells, any concentration tested up to 15 μM, 72 hours): no cytotoxicity
clinical signs of toxicity [9]: did not cause any clinical signs of toxicity

Compound: COC[C@@H]([C@H](O)[C@H](O)C(=O)NCC[C@H](C)c1nc(/C=C/C[C@@H]2O[C@]3(C[C@@H](O)[C@@H]2C)O[C@H]([C@H](C[C@H](O)[C@H](C)[C@H](O)[C@H](C)/C=C(C)/C(C)=C/C=C/C(C)=C\C#N)OC)[C@H](OP(=O)(O)O)C3(C)C)co1)N(C)C [calyculin A]
effect on PP1 activation by MBO-asGCS and C6-Cer [3]: abolished these effects
